# Assay results published in patent US11963966B2, “Compositions and methods for treating ovarian tumors” (Dana-Farber Cancer Institute, Inc., priority 2017, dated 2024).
# “Also recorded” adds a separate entry of the source.
# How the values were obtained:
# Format in all cases: cell-based
# [1] = system: ex vivo patient-derived ovarian cancer spheroids; test: Microscopic analysis of patient-derived spheroids/cells after drug treatment
# Description: (§1) FIG. 6A-FIG. 6G are a series of graphs and images depicting the impact of JAK/STAT-inhibition on spheroid formation, invasion and killing ex vivo and in vitro. FIG. 6A a histogram (FIG. 11B), showing drug screening with 14 compounds (at 1 μM) inhibiting the JAK/STAT pathway in OVACR4. Relative viability compared to DMSO control measured by CTG. […] The same library was screened in 2D-cultures of OVACR4 (FIG. 11A), and 2D-cultures of OVACR8 (FIG. 11C) and 3D-cultures of OVACR8 (FIG. 11D). FIG. 6B is a series of plots showing drug sensitivity testing using the GILA assay in platinum-resistant ex vivo spheroid cultures of patients DF3291 and DF3266, The X-axis indicates the log μM concentration of drugs indicated in the legend, Y-axis indicates the percentage of luminescence signal as indicator for viability relatively to DMSO treated cells. In both patients, half maximal effective concentration (EC50) were ˜100 nM and ˜10 nM, respectively, while other drugs routinely used for the treatment of (platinum-resistant) ovarian cancer had EC50>10 μM. FIG. 6C is a series of images of microscopic analysis of spheroids with different drug treatments to highlight the morphologic changes during therapy with drugs listed. Inhibition of JAK/STAT pathway disrupts ex vivo spheroid cultures. […] 20 spheroids clusters were analyzed for each iteration. […]
# [2] = system: patient ascites-derived spheroids; test: Mesothelial clearance (invasion through mesothelial monolayer); details: pre-treatment 30 or 120 minutes followed by drug removal
# Description: as §1
# [3] = system: spheroids of ovarian cancer cell lines OVCAR8 and TKYNU; test: as above; details: treatment 30 minutes followed by drug removal
# Description: as §1
# [4] = system: cells from abdominal ascites of ovarian patient NACT14; test: Sensitivity of patient-derived ovarian cells in a microfluidic device; details: 10 μM, ~800 cells in 1 microliter, imaging 48 hours after drug
# Description: Heterogeneous cell population isolated from abdominal ascites of ovarian patient NACT14. A limited number of cells (˜800 cells) in a volume of 1 microliter were tested for sensitivity of JSI124. On day 0, the cells were seeded in the microfluidic device. On day 1, drug was administered, together with a blue dye (FIG. 29-FIG. 31).
# Hoechst confocal imaging (stained nuclei) was used to observe cells forty eight (48) hours after the drug was added (FIG. 32-FIG. 35).
smiles,measurement,setting,value
"CC(C)(O)/C=C/C(=O)[C@](C)(O)[C@H]1[C@@H](O)C[C@@]2(C)[C@@H]3CC=C4[C@H](C=C(O)C(=O)C4(C)C)[C@]3(C)C(=O)C[C@]12C [JSI-124, cucurbitacin I]",Morphology of ex-vivo patient-derived ovarian cells after treatment,[1]; FIG. 36,massive elimination of tumor cells
same,Spheroid morphology / integrity,[1]; platinum-resistant ex vivo spheroids,disintegration of the solid 3D spheroid structure
same,Ability to invade (clear) the mesothelial monolayer,[2],significantly reduced ability to invade the mesothelial monolayer; also recorded: unable to invade through the mesothelial monolayer
same,Ability to invade the mesothelium,[3],abolished their ability to invade the mesothelium; also recorded: unable to invade through the mesothelial monolayer
same,Effectiveness against patient-derived ovarian cells,[4],Effective
